According to US12398119B2, “Piperazine azaspiro derivatives” (PFIZER INC., priority 2018, dated 2025):
Read-outs that look alike come from different tables or passages of the source.

Target: T1, Human M4 mAChR (Homo sapiens, UniProt P08173)
T1 construct: host or cells: HEK293 (Sor-L9 HEK293 human/M4/GloSensor Cell Clone Number 40)
T1 sequence (P08173 1-479): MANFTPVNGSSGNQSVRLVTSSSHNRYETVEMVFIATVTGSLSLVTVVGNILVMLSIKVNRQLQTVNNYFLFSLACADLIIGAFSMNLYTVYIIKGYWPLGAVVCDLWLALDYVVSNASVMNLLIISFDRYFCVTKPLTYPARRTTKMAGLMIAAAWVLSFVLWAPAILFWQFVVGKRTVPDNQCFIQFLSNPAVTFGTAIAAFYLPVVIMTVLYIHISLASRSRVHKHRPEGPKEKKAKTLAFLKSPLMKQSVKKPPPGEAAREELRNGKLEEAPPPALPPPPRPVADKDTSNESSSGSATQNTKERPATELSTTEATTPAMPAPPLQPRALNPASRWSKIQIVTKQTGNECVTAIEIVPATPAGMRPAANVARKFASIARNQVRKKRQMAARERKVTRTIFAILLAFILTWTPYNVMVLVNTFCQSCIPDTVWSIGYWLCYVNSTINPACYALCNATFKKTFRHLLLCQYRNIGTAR
Experiment: Muscarinic hM4 Agonist GloSensor cAMP Assay
Format: cell-based
Procedure: Muscarinic hM4 Agonist GloSensor cAMP Assay Methods
Compounds were prepared in advance of the assay. Test compounds were solubilized in 100% dimethyl sulfoxide (DMSO, Sigma D8418) to a concentration of 30 mM. A 10-point intermediate dilution series using half log dilutions was created in 100% DMSO with a top concentration of 4 mM. The serially diluted compounds were spotted as 200 nL/well in a 384-well plate (Matrix Catalog Number 4325). The final compound concentration range in the assay was […] to 0.3 nM with a final DMSO concentration of 0.25%.
Human M4 mAChR expressing stable cell lines were generated using a parental HEK cell expressing the GloSensor construct (Promega Sor-L9 HEK293 human/M4/GloSensor Cell Clone Number 40). The cells were grown in 90% Dulbecco's Modified Eagle Medium (DMEM, Gibco 11960), 10% fetal bovine serum (FBS, Hyclone CH.30160-03), 1% Penicillin/Streptomycin (Gibco 15070-063), 500 µg/mL Geneticin (Gibco 10131-027), 200 µg/mL Hygromycin B (Invitrogen 10687-010) and 1% Glutamax (Thermo Fisher 35050061).
One day prior to assay, the cells were lifted using dissociation buffer (Gibco 13151-014) and spun in a centrifuge at 250 times gravity for 5 minutes at room temperature. Supernatant was removed and the cell pellet was resuspended in growth media to a concentration of […]. Cells were then added to white poly-d-lysine coated plates (Becton Dickinson 356661) as 40 μL per well (25,000 cells) and incubated overnight (20-24 hours) in a 37° C. humidified incubator with 5% carbon dioxide (C02).
The following day, culture media was removed from the cell plates and replaced with […] equilibration medium containing 88% CO2-independent medium (Invitrogen 18045088), 10% FBS and 2% GloSensor cAMP reagent (Promega E1291) that had been warmed to 37° C. Plates were then covered and incubated for 2 hours at room temperature while protected from light.
To the previously prepared serially diluted compound plates, 200 nL of 4 mM ACh (Sigma A2661, 10 μM final) or 200 nL of 100% DMSO (0.25% final) was added to the positive and negative control wells, respectively. Compound plates were then diluted by adding 16 μL of C02-independent media containing 10% FBS and an EC80 concentration of isoproterenol (Sigma 16504). Prior to compound testing, concentration response curves were run for isoproterenol to determine the EC80 concentration. At the end of the 2 hour equilibration, 10 µL was transferred from the compound plates to the cell plates. The cell plates were incubated an additional 7 minutes at room temperature and then read using a Multi-label EnVision plate reader (Perkin Elmer) for luminescence.
The raw data, expressed as relative light units, was analyzed using Activity Base (IDBS). The percent effect at each compound concentration was calculated based on and relative to the amount of cAMP produced by the positive and negative control wells contained on each assay plate. The positive control wells contained an EC100 concentration of ACh and the negative control wells contained only DMSO. The concentration and % effect values were fit using a four-parameter logistic dose response equation, and the concentration required for 50% effect (EC50) was determined as well as the maximum asymptote of the concentration response curve to define the efficacy.

[1] = HEK293 human/M4/GloSensor cells, EC80 isoproterenol, geometric mean, number of determinations in parentheses, read-out: EC50
[2] = Emax: maximum asymptote of concentration response curve, relative to ACh positive control (EC100) and DMSO, geometric mean, read-out: % maximum effect
[3] = enantiomers reported in footnotes to Table 1, number of determinations in parentheses, read-out: M4 EC50
[4] = enantiomers reported in footnotes to Table 1, number of determinations in parentheses, read-out: M4 Emax

Row | SMILES | EC50 [1] | Emax [2] | EC50 [3] | Emax [4]
1 | CCOC(=O)N1CC2(CCC(N3CCN(c4ncccc4-c4cnc(OC)cn4)CC3)C2)C1 (single isomer, unassigned) [Example 2, ethyl 6-{4-[3-(5-methoxypyrazin-2-yl)pyridin-2-yl]piperazin-1-yl}-2-azaspiro[3.4]octane-2-carboxylate] | > 10000 nM |  |  | 
2 | CCOC(=O)N1CC2(CCC(N3CCN(c4ncccc4-c4cnc(OC)cn4)CC3)C2)C1 (single isomer, unassigned) [Example 3, ethyl 6-{4-[3-(5-methoxypyrazin-2-yl)pyridin-2-yl]piperazin-1-yl}-2-azaspiro[3.4]octane-2-carboxylate] | 3.87 nM | 83.7% |  | 
3 | CCOC(=O)N1CC2(CCC(N3CCN(c4cccnc4OC(F)F)CC3)C2)C1 (single isomer, unassigned) [Example 19, ethyl 6-{4-[2-(difluoromethoxy)pyridin-3-yl]piperazin-1-yl}-2-azaspiro[3.4]octane-2-carboxylate] | 1.45 nM | 78.4% |  | 
4 | CCOC(=O)N1CC2(CCC(N3CCN(c4cccnc4OC(F)(F)F)CC3)C2)C1 (single isomer, unassigned) [Example 20, ethyl 6-{4-[2-(trifluoromethoxy)pyridin-3-yl]piperazin-1-yl}-2-azaspiro[3.4]octane-2-carboxylate] | 9.9 nM | 75.3% |  | 
5 | CCOC(=O)N1CC2(CCC(N3CCN(c4ncccc4C)CC3)C2)C1 (single isomer, unassigned) [Example 21, ethyl 6-[4-(3-methylpyridin-2-yl)piperazin-1-yl]-2-azaspiro[3.4]octane-2-carboxylate] | 4.01 nM | 96.8% |  | 
6 | CCOC(=O)N1CC2(CCC(N3CCN(c4ncccc4C4CC4)CC3)C2)C1 (single isomer, unassigned) [Example 22, ethyl 6-[4-[3-cyclopropylpyridin-2-yl)piperazin-1-yl]-2-azaspiro[3.4]octane-2-carboxylate] | < 0.074 nM | 107% |  | 
7 | CCOC(=O)N1CCC2(CC(N3CCN(c4ncccc4-c4ccc(C#N)cn4)CC3)C2)C1 (single isomer, unassigned) [Example 23, ethyl 2-[4-(5-cyano-2,3′-bipyridin-2′-yl)piperazin-1-yl]-6-azaspiro[3.4]octane-6-carboxylate] | 143 nM | 85% |  | 
8 | CCOC(=O)N1CC2(CCC(N3CCN(c4ncc(F)cc4-c4cscn4)CC3)C2)C1 (single isomer, unassigned) [Example 26, ethyl 6-{4-[5-fluoro-3-(1,3-thiazol-4-yl)pyridin-2-yl]piperazin-1-yl}-2-azaspiro[3.4]octane-2-carboxylate] | 26.4 nM | 59.8% |  | 
9 | CCOC(=O)N1CC2(CCC(N3CCN(c4nccnc4OC)CC3)C2)C1 (single isomer, unassigned) [Example 27, ethyl 6-[4-(3-methoxypyrazin-2-yl)piperazin-1-yl]-2-azaspiro[3.4]octane-2-carboxylate] | 11.4 nM | 25.1% |  | 
10 | CCOC(=O)N1CC2(CCC(N3CCN(c4ncccc4-c4cnsn4)CC3)C2)C1 (single isomer, unassigned) [Example 34, ethyl 6-{4-[3-(1,2,5-thiadiazol-3-yl)pyridin-2-yl]piperazin-1-yl}-2-azaspiro[3.4]octane-2-carboxylate] | 1.28 nM | 96.2% |  | 
11 | CCOC(=O)N1CC2(CCC(N3CCN(c4ncccc4-c4cnc(C#N)cn4)CC3)C2)C1 (single isomer, unassigned) [Example 41, ethyl 6-{4-[3-(5-cyanopyrazin-2-yl)pyridin-2-yl]piperazin-1-yl}-2-azaspiro[3.4]octane-2-carboxylate] | 8.52 nM | 82.4% |  | 
12 | CCOC(=O)N1CC2(CCC(N3CCN(c4cccnc4OC(F)F)CC3)C2)C1 (single isomer, unassigned) [enantiomer of Example 19, ethyl 6-{4-[2-(difluoromethoxy)pyridin-3-yl]piperazin-1-yl}-2-azaspiro[3.4]octane-2-carboxylate] |  |  | 201 nM | 74%
13 | CCOC(=O)N1CC2(CCC(N3CCN(c4cccnc4OC(F)(F)F)CC3)C2)C1 (single isomer, unassigned) [enantiomer of Example 20, ethyl 6-{4-[2-(trifluoromethoxy)pyridin-3-yl]piperazin-1-yl}-2-azaspiro[3.4]octane-2-carboxylate] |  |  | 3600 nM | 95.3%
14 | CCOC(=O)N1CC2(CCC(N3CCN(c4ncccc4C)CC3)C2)C1 (single isomer, unassigned) [enantiomer of Example 21, ethyl 6-[4-(3-methylpyridin-2-yl)piperazin-1-yl]-2-azaspiro[3.4]octane-2-carboxylate] |  |  | > 241 nM | 76.2%
15 | CCOC(=O)N1CC2(CCC(N3CCN(c4ncccc4C4CC4)CC3)C2)C1 (single isomer, unassigned) [enantiomer of Example 22, ethyl 6-[4-(3-cyclopropylpyridin-2-yl)piperazin-1-yl]-2-azaspiro[3.4]octane-2-carboxylate] |  |  | 11.6 nM | 103%
16 | CCOC(=O)N1CCC2(CC(N3CCN(c4ncccc4-c4ccc(C#N)cn4)CC3)C2)C1 (single isomer, unassigned) [enantiomer of Example 23, ethyl 2-[4-(5-cyano-2,3′-bipyridin-2′-yl)piperazin-1-yl]-6-azaspiro[3.4]octane-6-carboxylate] |  |  | > 10000 nM | 
17 | CCOC(=O)N1CC2(CCC(N3CCN(c4ncc(F)cc4-c4cscn4)CC3)C2)C1 (single isomer, unassigned) [enantiomer of Example 26, ethyl 6-{4-[5-fluoro-3-(1,3-thiazol-4-yl)pyridin-2-yl]piperazin-1-yl}-2-azaspiro[3.4]octane-2-carboxylate] |  |  | 152 nM | 67.1%
18 | CCOC(=O)N1CC2(CCC(N3CCN(c4nccnc4OC)CC3)C2)C1 (single isomer, unassigned) [enantiomer of Example 27, ethyl 6-[4-(3-methoxypyrazin-2-yl)piperazin-1-yl]-2-azaspiro[3.4]octane-2-carboxylate] |  |  | > 10000 nM | 
19 | CCOC(=O)N1CC2(CCC(N3CCN(c4ncccc4-c4cnsn4)CC3)C2)C1 (single isomer, unassigned) [enantiomer of Example 34, ethyl 6-{4-[3-(1,2,5-thiadiazol-3-yl)pyridin-2-yl]piperazin-1-yl}-2-azaspiro[3.4]octane-2-carboxylate] |  |  | 347 nM | 72.3%
20 | CCOC(=O)N1CC2(CCC(N3CCN(c4ncccc4-c4cnc(C#N)cn4)CC3)C2)C1 (single isomer, unassigned) [enantiomer of Example 41, ethyl 6-{4-[3-(5-cyanopyrazin-2-yl)pyridin-2-yl]piperazin-1-yl}-2-azaspiro[3.4]octane-2-carboxylate] |  |  | 268 nM | 52.7%
